# Measurements published in US20020039567A1, “Methods of treating bone or cartilage conditions by the administration of creatine” (priority 1998, published 2002).
# Columns and labels:
# [1] = test system: osteoblasts (micromass culture); experiment: Mitochondrial activity (MTT conversion), micromass osteoblast cell culture; type: cell-based, rat; details: for MTT reaction: 2 weeks vs 1 week
# Protocol: This isolation technique is based on the ability of osteoblasts to migrate from bone onto a substratum. Parietal and frontal calvariae (4 per animal) were aseptically explanted from 6 day-old IcoIbm rats. The calvariae were placed in Tyrode's balanced salt solution, calcium and magnesium free (TESS). The periosteum was enzymatically removed with 0.05% trypsin and 0.02% collagenase A (0.76 U/mg) dissolved in TBSS (40 calvaria/20 ml). The calvariae were shaken for 70 minutes in a waterbath at 37° C. They were washed with TESS and then transferred to 60 mm culture dishes (40 calvariae/dish) containing 5 ml of 0.02% collagenase A (0.76 U/mg) in culture medium BGJb Fitton-Jackson modification and placed in the incubator for 4 hours. The calvariae were then washed with culture medium B supplemented with 10% foetal calf serum (FCS). The calvariae were transferred into 60 mm culture dishes (4 frontal and 4 parietal/dish). The growth medium supplemented with 10% FCS and 50 μg/ml ascorbate was completely changed every 48 hours. The culture was kept for 3 weeks.
# After 3 weeks the migrated cells were harvested. The dish was washed with TESS, and 5 ml of TESS containing 0.05% trypsin and 0.02% collagenase A (0.76 U/mg) was added. After 1 hour in the incubator, the dish was washed with culture medium BGJb supplemented with 10% FCS. The dishes containing the calvariae and cells were rinsed with serum containing media BGJb. […] The viability of the resuspended cells was examined by the dye exclusion of 0.4% trypan blue, and the cells were counted in a haeinocytometer. […]
# Originally, Mosmann, 1983 described the general principle involved in the detection of cell growth/cell death as indicated by the conversion of the tetrazolium salt (MTT) to the colored formazan by mitochondrial dehydrogenases. The concentration of this can then be measured spectrophotoinetrically. […]
# 6. The absorbance of the supernatant (3 aliquots/dish) was read at 550 nm versus DMSO.
# If the absorbance was higher than 1, the samples were diluted with DMSO.
# [2] = test system: osteoblasts (micromass culture); experiment: Mineralization, micromass osteoblast cell culture; type: cell-based, rat
# Protocol: This isolation technique is based on the ability of osteoblasts to migrate from bone onto a substratum. Parietal and frontal calvariae (4 per animal) were aseptically explanted from 6 day-old IcoIbm rats. The calvariae were placed in Tyrode's balanced salt solution, calcium and magnesium free (TESS). The periosteum was enzymatically removed with 0.05% trypsin and 0.02% collagenase A (0.76 U/mg) dissolved in TBSS (40 calvaria/20 ml). The calvariae were shaken for 70 minutes in a waterbath at 37° C. They were washed with TESS and then transferred to 60 mm culture dishes (40 calvariae/dish) containing 5 ml of 0.02% collagenase A (0.76 U/mg) in culture medium BGJb Fitton-Jackson modification and placed in the incubator for 4 hours. The calvariae were then washed with culture medium B supplemented with 10% foetal calf serum (FCS). The calvariae were transferred into 60 mm culture dishes (4 frontal and 4 parietal/dish). The growth medium supplemented with 10% FCS and 50 μg/ml ascorbate was completely changed every 48 hours. The culture was kept for 3 weeks. After 3 weeks the migrated cells were harvested. The dish was washed with TESS, and 5 ml of TESS containing 0.05% trypsin and 0.02% collagenase A (0.76 U/mg) was added. After 1 hour in the incubator, the dish was washed with culture medium BGJb supplemented with 10% FCS. The dishes containing the calvariae and cells were rinsed with serum containing media BGJb. The cells obtained were filtered through a 40 μm nylon mesh to remove bone debris and cell aggregates. The suspended cells were centrifuged at 600 g for 5 minutes. The cell pellet was resuspended in serum containing medium BGJb and centrifuged. The viability of the resuspended cells was examined by the dye exclusion of 0.4% trypan blue, and the cells were counted in a haeinocytometer. The inoculation densities were 2·10^5/10 cm^2 for monolayer and 2·10^5/30 μl for micromasses. The micromass cultures were kept for 1 hour in the incubator before 2 ml growth medium was added. All the cultures were kept at 37° C. in a humidified atmosphere of 5% CO2, 95% air. All culture media were supplemented with 50 μg/ml ascorbate. To analyze the collagen types, 60 μg/ml beta-aminopropionitrile (beta-APN) was added to the culture medium. During cell isolation and inoculation, no ascorbate was used to increase plating efficiency. No antibiotics and no beta-glycerophosphate were added. The media were completely changed every 48 hours (60 mm culture dish 5 ml; 35 mm culture dish 2 ml). The most specific method for detecting calcified matrices is the von Kossa reaction. Silver staining indicates the presence of calcium phosphate aggregated with certain organic acids. Structural details are completely obscured by the dark precipitate. Calcified tissue components are darkened in various shades from light brown to deep black, irrespective of their mineral content. [table]
compound,measurement,setting,value
CN(CC(=O)O)C(=N)N [creatine],MTT reaction,"[1]; 10 mM creatine, p<0.02",significantly higher MTT reaction
same,MTT reaction,"[1]; 20 mM creatine, p<0.006",significantly higher MTT reaction
same,MTT conversion,"[1]; 20 mM creatine, 3 weeks vs 2 weeks, p<0.015",significantly lower MTT conversion
same,mineralized area (FIG. 4),"[2]; 10 mM creatine vs control, 2 weeks, p<0.00025",significantly more mineralization
same,mineralized area (FIG. 4),"[2]; 10 mM creatine vs control, 3 weeks, p<0.0035",significantly higher
same,mineralization (FIG. 4),"[2]; 10 mM creatine, 3 weeks vs 2 weeks, p<0.0015",significantly higher mineralization
same,mineralized area (FIG. 4),"[2]; 20 mM creatine vs control, 2 weeks, p<0.00025",significantly more mineralization
same,mineralized area (FIG. 4),"[2]; 20 mM creatine vs control, 3 weeks, p<0.03",significantly higher
